Here are results for seven molecules from ChEMBL document CHEMBL1201862, “PubChem BioAssay data set” (2004).

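Exposure lasted 48 hours, with cells grown in 96-well plates and compounds tested at five concentrations. At the GI50, growth is halved.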 Calls of active or inactive are those of the source. Cut-off read from the data, not from the text of the source: active = GI50 up to about 1.1 µM and inactive = higher.

Among the test systems are HOP-62; NCI-H522; HCC 2998; LOX IMVI; BT-549; HL-60; SK-MEL-28; NCI-H23; SNB-19; MDA-MB-231; K562; TK-10; OVCAR-3; UACC-257; NCI-H226; CAKI-1; NCI-H460; HCT-15; SK-OV-3; SR.
Assay in all cases: growth of human tumour cells (NCI), 48 h

For the molecule `Cc1cccc(C)c1NC(=O)/C(Cl)=C(/Cl)C(=O)O`, the GI50 with HOP-62 was > 62.2 µM (inactive); in the test with NCI-H522 it was 4.33 µM (inactive); with HCC 2998, 18 µM (inactive); in the test on LOX IMVI, 18.1 µM (inactive); in the test on BT-549, 17.6 µM (inactive); in the test on HL-60, 2.63 µM (inactive). The GI50 is 18.3 µM (inactive) in the test on SK-MEL-28; 19.1 µM (inactive) in the test with NCI-H23; 24.5 µM (inactive) in the test with SNB-19; 21.3 µM (inactive) in the test on MDA-MB-231; 3.23 µM (inactive) in the test on K562; 14.7 µM (inactive) in the test on TK-10. The GI50 in the test on OVCAR-3 was 20.9 µM (inactive); in the test on UACC-257, 16.1 µM (inactive); in the test with NCI-H226, 16.4 µM (inactive); in the test with CAKI-1 it was 7.66 µM (inactive); in the test with NCI-H460, 30.8 µM (inactive); in the test with HCT-15, 16.2 µM. Also, the GI50 with SK-OV-3 is 21.8 µM (inactive); with SR it was 8.41 µM (inactive).
As to `O=C(O)C1CSC2(CCCN(Cc3ccccc3)C2)N1` (stereo not given), the GI50 with HOP-62, with NCI-H522, in the test on HCC 2998, in the test on LOX IMVI, in the test on BT-549 and in the test on HL-60 was > 100 µM (inactive) in each case. The GI50 was > 100 µM (inactive) in the test with SK-MEL-28; > 100 µM (inactive) with NCI-H23; > 100 µM (inactive) in the test with SNB-19; > 100 µM (inactive) in the test with MDA-MB-231; > 28.8 µM (inactive) with K562; > 100 µM (inactive) with TK-10. In addition, the GI50 in the test with OVCAR-3 was > 100 µM (inactive); in the test on UACC-257, > 100 µM (inactive); with NCI-H226 it was > 100 µM (inactive); in the test on CAKI-1, > 100 µM (inactive); in the test with NCI-H460 it was > 100 µM (inactive); with HCT-15, over 100 µM. For the same molecule, the GI50 was > 100 µM (inactive) with SK-OV-3 and 4.81 µM (inactive) with SR.
For `COC(=O)/C=C\C(C#N)(C#N)/N=C/c1cc(Br)cs1`, the GI50 in the test on HOP-62 was 18.6 µM (inactive); with NCI-H522, 1.5 µM (inactive); with HCC 2998 it was 16 µM (inactive); in the test with LOX IMVI, 2.06 µM (inactive); in the test on BT-549, 7.08 µM (inactive); in the test with HL-60 it was 0.0465 µM (active). Further, the GI50 in the test with SK-MEL-28 is 5.32 µM (inactive); in the test with NCI-H23, 5.33 µM (inactive); with SNB-19, 18.5 µM (inactive); with MDA-MB-231, 9.35 µM (inactive); in the test on K562, 0.562 µM (active); in the test with TK-10, 3.11 µM (inactive). For the same molecule, the GI50 was 7 µM (inactive) in the test on OVCAR-3; 2.67 µM (inactive) in the test on UACC-257; 19.8 µM (inactive) in the test on NCI-H226; 2.96 µM (inactive) with CAKI-1; 19.6 µM (inactive) in the test on NCI-H460; 2.71 µM with HCT-15. Moreover, the GI50 was 19.5 µM (inactive) in the test on SK-OV-3 and 2.32 µM (inactive) with SR.
Regarding `COc1ccc(C(Nc2ncccn2)c2cc3c(cc2O)OCO3)cc1` (stereo not given), the GI50 was 22.4 µM (inactive) in the test on HOP-62; 16.7 µM (inactive) in the test with NCI-H522; 21.7 µM (inactive) in the test with HCC 2998; 16.9 µM (inactive) in the test with LOX IMVI; 23 µM (inactive) with BT-549; 16.4 µM (inactive) with HL-60. Besides, the GI50 with SK-MEL-28 was 22.3 µM (inactive); in the test on NCI-H23, 12.7 µM (inactive); in the test on SNB-19, 17.3 µM (inactive); with MDA-MB-231, 21.3 µM (inactive); in the test with K562, 23.1 µM (inactive); with TK-10 it was 18.6 µM (inactive). For the same molecule, the GI50 in the test with OVCAR-3 was 17.3 µM (inactive); with UACC-257, 18.9 µM (inactive); in the test on NCI-H226, 21.7 µM (inactive); with CAKI-1, 20.3 µM (inactive); in the test on NCI-H460, 20.1 µM (inactive); in the test with HCT-15, 18.8 µM. Besides, the GI50 in the test with SK-OV-3 was 22.1 µM (inactive); in the test on SR, 7.14 µM (inactive).
For the molecule `COc1cc2c(cc1OCCCCOc1cc(-c3ccc(F)cc3)nc(C)n1)N=C[C@@H]1CCCN1C2=O`, the GI50 is 0.451 µM (active) with HOP-62; 0.212 µM (active) in the test on NCI-H522; 0.029 µM (active) in the test with HCC 2998; 0.166 µM (active) in the test with LOX IMVI; 0.579 µM (active) with BT-549; 0.279 µM (active) in the test with HL-60. For the same molecule, the GI50 with SK-MEL-28 is 0.982 µM (active); with NCI-H23, 0.468 µM (active); with SNB-19 it was 0.689 µM (active); with MDA-MB-231 it was 1.04 µM (active); in the test with K562 it was 0.267 µM (active); in the test on TK-10 it was 0.224 µM (active). The GI50 in the test with OVCAR-3 was 0.336 µM (active); in the test on UACC-257 it was 0.692 µM (active); with NCI-H226, 1.05 µM (active); with CAKI-1, 0.313 µM (active); in the test on NCI-H460, 0.413 µM (active); with HCT-15, 0.701 µM. Also, the figures for the GI50 in the test with SK-OV-3 and with SR were 3.19 µM (inactive) and 0.16 µM (active), respectively.
As to `COc1cccc(C2ON=C(c3ccccc3)N2C23CC4CC(CC(C4)C2)C3)c1` (stereo not given), the GI50 in the test on HOP-62 was > 10 µM (inactive); in the test on NCI-H522, > 10 µM (inactive); in the test with HCC 2998, > 10 µM (inactive); in the test with LOX IMVI, > 10 µM (inactive); in the test with BT-549, > 10 µM (inactive); in the test on HL-60 it was 5.09 µM (inactive). Further, the GI50 in the test on SK-MEL-28 is > 10 µM (inactive); in the test with NCI-H23, > 10 µM (inactive); in the test on SNB-19, > 10 µM (inactive); with MDA-MB-231, > 10 µM (inactive); with K562, 8.41 µM (inactive); with TK-10, > 10 µM (inactive). In addition, the GI50 in the test with OVCAR-3 is 9.04 µM (inactive); with UACC-257 it was > 10 µM (inactive); with NCI-H226 it was 4.63 µM (inactive); in the test on CAKI-1, > 10 µM (inactive); in the test with NCI-H460, > 10 µM (inactive); in the test with HCT-15, over 10 µM. Also, the values for the GI50 in the test with SK-OV-3 and in the test with SR were > 10 µM (inactive) and 2.09 µM (inactive), respectively.
As to `COc1cc(C2c3cc4c(cc3OC(N3CCCC3)C2C)OCO4)cc(OC)c1O` (stereo not given), the GI50 in the test with HOP-62 is 11.6 µM (inactive); in the test with NCI-H522 it was 3.61 µM (inactive); in the test on HCC 2998, 28.2 µM (inactive); in the test with LOX IMVI, 23 µM (inactive); with BT-549, 13.3 µM (inactive); in the test on HL-60 it was 4.58 µM (inactive). Besides, the GI50 with SK-MEL-28 was > 43.9 µM (inactive); with NCI-H23, 23.4 µM (inactive); in the test with SNB-19 it was 13.2 µM (inactive); in the test on MDA-MB-231, 19.4 µM (inactive); in the test on K562, 4.88 µM (inactive); in the test with TK-10, 19.4 µM (inactive). For the same molecule, the GI50 in the test on OVCAR-3 was 13.5 µM (inactive); in the test on UACC-257 it was 35.6 µM (inactive); with NCI-H226, 25.5 µM (inactive); with CAKI-1, 16.1 µM (inactive); in the test on NCI-H460, 16.3 µM (inactive); with HCT-15, 14 µM. Further, the values for the GI50 in the test on SK-OV-3 and with SR were 11.5 µM (inactive) and 5.89 µM (inactive), respectively.
